Test results published in patent US20140031278A1, “Novel Glucagon Analogues” (NOVO NORDISK A/S, priority 2011, published 2014).
*1 amine or outer side, *2 acyl side, *3 side chain or, on linkers, in order; H or OH if unused. Where a SMILES comes first, the peptide text is derived from it. Side-chain parts run from the residue outwards. γGlu = O=C(O)[C@H](CCC(=O)[*:2])N[*:1]

target: T1, glucagon receptor (Homo sapiens, UniProt P47871); assay: Assay (I) Glucagon activity (cAMP biosensor, FLIPR); type: cell-based; details: HEK-293 cells with cloned glucagon receptor and cAMP biosensor; end point after 6 minutes
T1 construct: expressed in transfected cells
Method in brief: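 HEK-293 cells expressing glucagon receptor with membrane cAMP biosensor (ACTOne), calcium-dye loaded with probenecid and a PDE inhibitor.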

T1 sequence (P47871 26-477): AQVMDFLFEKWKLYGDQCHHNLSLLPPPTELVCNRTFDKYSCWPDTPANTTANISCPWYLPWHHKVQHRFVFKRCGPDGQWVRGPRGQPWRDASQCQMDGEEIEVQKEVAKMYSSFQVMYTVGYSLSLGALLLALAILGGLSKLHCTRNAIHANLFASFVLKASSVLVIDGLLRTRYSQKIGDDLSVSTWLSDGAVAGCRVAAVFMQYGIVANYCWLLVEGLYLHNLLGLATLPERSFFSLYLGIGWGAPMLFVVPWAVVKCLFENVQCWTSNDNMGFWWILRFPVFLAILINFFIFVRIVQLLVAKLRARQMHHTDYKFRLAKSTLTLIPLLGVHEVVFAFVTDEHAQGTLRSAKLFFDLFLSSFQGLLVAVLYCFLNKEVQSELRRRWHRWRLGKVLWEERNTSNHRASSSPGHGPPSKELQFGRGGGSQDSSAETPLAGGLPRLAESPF

`CC(=O)N[C@@H](CCC(=O)N[C@@H](CCC(=O)N[C@@H](CCC(=O)N[C@@H](CCC(=O)NCCCC[C@H](NC(=O)[C@@H](NC(=O)[C@H](Cc1ccccc1)NC(=O)[C@H](CC(=O)O)NC(=O)[C@H](CCC(N)=O)NC(=O)[C@H](C)NC(=O)[C@H](CCCNC(=N)N)NC(=O)[C@H](CCCNC(=N)N)NC(=O)[C@H](CO)NC(=O)[C@H](CC(=O)O)NC(=O)[C@H](CC(C)C)NC(=O)[C@H](Cc1ccc(O)cc1)NC(=O)[C@H](CCCCN)NC(=O)[C@H](CO)NC(=O)[C@H](Cc1ccc(O)cc1)NC(=O)[C@H](CC(=O)O)NC(=O)[C@H](CO)NC(=O)[C@@H](NC(=O)[C@H](Cc1ccccc1)NC(=O)[C@@H](NC(=O)CNC(=O)[C@H](Cc1c[nH]cn1)NC(=O)[C@H](CO)NC(=O)[C@@H](N)Cc1c[nH]cn1)[C@@H](C)O)[C@@H](C)O)C(C)C)C(=O)N[C@@H](Cc1c[nH]c2ccccc12)C(=O)N[C@@H](CC(C)C)C(=O)N[C@@H](CC(C)C)C(=O)N[C@@H](CO)C(=O)N[C@H](C(=O)O)[C@@H](C)O)C(=O)O)C(=O)O)C(=O)O)C(=O)O` [Example 3] and `CC(=O)N[C@@H](CCC(=O)N[C@@H](CCC(=O)N[C@@H](CCC(=O)N[C@@H](CCC(=O)NCCCC[C@H](NC(=O)[C@@H](NC(=O)[C@H](Cc1ccccc1)NC(=O)[C@H](CC(=O)O)NC(=O)[C@H](CCC(N)=O)NC(=O)[C@H](C)NC(=O)[C@H](CCCNC(=N)N)NC(=O)[C@H](CCCNC(=N)N)NC(=O)[C@H](CO)NC(=O)[C@H](CCC(=O)O)NC(=O)[C@H](CC(C)C)NC(=O)[C@H](Cc1ccc(O)cc1)NC(=O)[C@H](CCCCN)NC(=O)[C@H](CO)NC(=O)[C@H](Cc1ccc(O)cc1)NC(=O)[C@H](CC(=O)O)NC(=O)[C@H](CO)NC(=O)[C@@H](NC(=O)[C@H](Cc1ccccc1)NC(=O)[C@@H](NC(=O)CNC(=O)[C@H](CCC(N)=O)NC(=O)[C@H](CO)NC(=O)[C@@H](N)Cc1c[nH]cn1)[C@@H](C)O)[C@@H](C)O)C(C)C)C(=O)N[C@@H](Cc1c[nH]c2ccccc12)C(=O)N[C@@H](CC(C)C)C(=O)N[C@@H](CC(C)C)C(=O)N[C@@H](CO)C(=O)N[C@H](C(=O)O)[C@@H](C)O)C(=O)O)C(=O)O)C(=O)O)C(=O)O` [Example 23, N^ε24-[(4S)-4-[[(4S)-4-[[(4S)-4-[[(4S)-4-acetamido-4-carboxybutanoyl]amino]-4-carboxybutanoyl]amino]-4-carboxybutanoyl]amino]-4-carboxybutanoyl]-[Glu15,Lys24,Leu27,Ser28]-Glucagon] are the same in EC50: 0.0105 nM for the first, 0.0105 nM for the second.

Compared with `CC(C)C[C@H](NC(=O)[C@H](Cc1c[nH]c2ccccc12)NC(=O)[C@H](CCCCNC(=O)CC[C@H](NC(=O)CC[C@H](NC(=O)CC[C@H](NC(=O)CC[C@H](N)C(=O)O)C(=O)O)C(=O)O)C(=O)O)NC(=O)[C@@H](NC(=O)[C@H](Cc1ccccc1)NC(=O)[C@H](CC(=O)O)NC(=O)[C@H](C)NC(=O)[C@H](C)NC(=O)[C@H](CCCNC(=N)N)NC(=O)[C@H](CCCNC(=N)N)NC(=O)[C@@H](NC(=O)[C@H](CC(=O)O)NC(=O)[C@H](CC(C)C)NC(=O)[C@H](Cc1ccc(O)cc1)NC(=O)[C@H](CCCCN)NC(=O)[C@H](CO)NC(=O)[C@H](Cc1ccc(O)cc1)NC(=O)[C@H](CC(=O)O)NC(=O)[C@H](CO)NC(=O)[C@@H](NC(=O)[C@H](Cc1ccccc1)NC(=O)[C@@H](NC(=O)CNC(=O)[C@H](Cc1c[nH]cn1)NC(=O)[C@H](CO)NC(=O)[C@@H](N)Cc1c[nH]cn1)[C@@H](C)O)[C@@H](C)O)[C@@H](C)O)C(C)C)C(=O)N[C@@H](CC(C)C)C(=O)N[C@@H](CO)C(=O)N[C@H](C(=O)O)[C@@H](C)O` [Example 7, N^ε24-[(4S)-4-[[(4S)-4-[[(4S)-4-[[(4S)-4-amino-4-carboxybutanoyl]amino]-4-carboxybutanoyl]amino]-4-carboxybutanoyl]amino]-4-carboxybutanoyl]-[His3,Thr16,Ala20,Lys24,Leu27,Ser28]-Glucagon] (H-HSHGTFTSDYSKYLDTRRAADFVK([γGlu-γGlu-γGlu-γGlu])WLLST-OH), `CC(=O)N[C@@H](CCC(=O)N[C@@H](CCC(=O)N[C@@H](CCC(=O)N[C@@H](CCC(=O)NCCCC[C@H](NC(=O)[C@H](CC(C)C)NC(=O)[C@H](CC(C)C)NC(=O)[C@H](Cc1c[nH]c2ccccc12)NC(=O)[C@H](CCC(N)=O)NC(=O)[C@@H](NC(=O)[C@H](Cc1ccccc1)NC(=O)[C@H](CC(=O)O)NC(=O)[C@H](CCC(N)=O)NC(=O)[C@H](C)NC(=O)[C@H](CCCNC(=N)N)NC(=O)[C@H](CCCNC(=N)N)NC(=O)[C@H](CO)NC(=O)[C@H](CC(=O)O)NC(=O)[C@H](CC(C)C)NC(=O)[C@H](Cc1ccc(O)cc1)NC(=O)[C@H](CCCCN)NC(=O)[C@H](CO)NC(=O)[C@H](Cc1ccc(O)cc1)NC(=O)[C@H](CC(=O)O)NC(=O)[C@H](CO)NC(=O)[C@@H](NC(=O)[C@H](Cc1ccccc1)NC(=O)[C@@H](NC(=O)CNC(=O)[C@H](CCC(N)=O)NC(=O)[C@H](CO)NC(=O)[C@@H](N)Cc1c[nH]cn1)[C@@H](C)O)[C@@H](C)O)C(C)C)C(=O)N[C@H](C(=O)O)[C@@H](C)O)C(=O)O)C(=O)O)C(=O)O)C(=O)O` [Example 53, N^ε28-[(4S)-4-[[(4S)-4-[[(4S)-4-[[(4S)-4-acetamido-4-carboxybutanoyl]amino]-4-carboxybutanoyl]amino]-4-carboxybutanoyl]amino]-4-carboxybutanoyl]-[Leu^27,Lys^28]-Glucagon] is 3.5-fold lower in EC50: 0.0243 nM for the first, 0.007 nM for the second. The second is the more potent here.

`CC(=O)N[C@@H](CCC(=O)N[C@@H](CCC(=O)N[C@@H](CCC(=O)N[C@@H](CCC(=O)NCCCC[C@H](NC(=O)[C@@H](NC(=O)[C@H](Cc1ccccc1)NC(=O)[C@H](CCC(=O)O)NC(=O)[C@H](CCC(N)=O)NC(=O)[C@H](C)NC(=O)[C@H](CCCNC(=N)N)NC(=O)[C@H](CCCNC(=N)N)NC(=O)[C@H](CO)NC(=O)[C@H](CCC(=O)O)NC(=O)[C@H](CC(C)C)NC(=O)[C@H](Cc1ccc(O)cc1)NC(=O)[C@H](CCCCN)NC(=O)[C@H](CO)NC(=O)[C@H](Cc1ccc(O)cc1)NC(=O)[C@H](CC(=O)O)NC(=O)[C@H](CO)NC(=O)[C@@H](NC(=O)[C@H](Cc1ccccc1)NC(=O)[C@@H](NC(=O)CNC(=O)[C@H](CCC(N)=O)NC(=O)[C@H](CO)NC(=O)[C@@H](N)Cc1c[nH]cn1)[C@@H](C)O)[C@@H](C)O)C(C)C)C(=O)N[C@@H](Cc1c[nH]c2ccccc12)C(=O)N[C@@H](CC(C)C)C(=O)N[C@@H](CC(C)C)C(=O)N[C@@H](CO)C(=O)N[C@H](C(=O)O)[C@@H](C)O)C(=O)O)C(=O)O)C(=O)O)C(=O)O` [Example 22, N^ε24-[(4S)-4-[[(4S)-4-[[(4S)-4-[[(4S)-4-acetamido-4-carboxybutanoyl]amino]-4-carboxybutanoyl]amino]-4-carboxybutanoyl]amino]-4-carboxybutanoyl]-[Glu15,Glu21,Lys24,Leu27,Ser28]-Glucagon] (H-HSQGTFTSDYSKYLESRRAQEFVK([γGlu-γGlu-γGlu-γGlu-Ac])WLLST-OH) showed an EC50 of 0.0055 nM.
